This note sets out measurements from EP1328811B1, “HCV MOSAIC ANTIGEN COMPOSITION” (MedMira Inc., priority 2000, dated 2005).

The test system of this test is anti-HCV antibodies. Nature of the test: Immunofiltration dotting assay of individual peptide-carrier conjugates (epitope mapping, Example 4). Format: binding, human. The settings on record: for reactivity with HCV positive samples / reactivity with positive HCV samples: HCV positive specimens n=10; for reactivity with positive HCV samples: peptide conjugates, independently of the carrier used (BSA, HSA, KLH), peptide-carrier mass ratio 0.5; for reactivity with negative HCV samples: peptide-carrier conjugates, HCV negative specimens n=10. The source says:
Several versions of antibody capture assay formats are available which differ mainly according to the type of solid supports employed and the detection technology used to determine the presence of immunological complexes formed by antigen-antibody recognition and binding. A commercially available immunofiltration dotting assay procedure (MedMira Inc., Halifax, N.S.) was used to test for immunoreactivity of the peptide-carrier conjugates based on colloidal gold detection using a nitrocellulose membrane as a solid support and is described below.
The HCV positive/negative specimens used to evaluate the mosaic antigen composition were provided by Dr. Spencer Lee (Director of Virology/Immunology, Microbiology Division, Department of Pathology and Laboratory Medicine) of the Queen Elizabeth II Health Sciences Center (Halifax, Nova Scotia). All specimens were tested with the Abbott's HCV test using the Axsym system platform. The Riba-II (Chiron) immunoblot assay was used as a confirmation test.
The maleimide-activated carrier molecules (KLH, BSA and HSA) were purchased from Pierce (Rockford, IL) and conjugated with cysteine containing peptides using a peptide-carrier mass ratio of 0.5 except mentioned otherwise.
Typically, the conjugates were passively adsorbed at a concentration of 1 mg/ml (bicarbonate buffer, 50 mM, pH 9.6) by applying one microliter of peptide-carrier conjugate on the nitrocellulose membrane. The antigen dotted membrane was air-dried. Before the test, the membrane was primed with 3 drops of washing buffer (Tris/phosphate/sodium chloride, pH 9.6 containing 0.25% Tween®20). The tests were performed as follows.
One drop of specimen serum was added to the membrane and after complete absorption of the sample, the membrane was washed with 4 drops of washing buffer. Four drops of protein A/colloidal gold solution (concentration corresponding to an optical density of 2 at 520 nm) was added to the membrane and the membrane was washed with 3 more drops of washing solution. The results were recorded visually within 5 minutes after completion of the test.
The identification of major linear epitopes was carried out using selected peptides corresponding to various regions of the HCV polyprotein and panels of well-characterized HCV positive and negative human sera. Additionally, a comparison of different carrier components was made based on a sensitivity/specificity assessment of various peptide-carrier conjugates.
Peptides were individually conjugated to three different carriers (BSA, HSA and KLH) and adsorbed passively on a nitrocellulose membrane support. Tests were performed by immunofiltration dotting assay format using a,commercially available flow-through assay platform (MedMira Inc., Halifax, N.S.).

Regarding “GPRLGVRATRKTSERSQP [MDL-4, HCV core region antigenic peptide]”, the “reactivity with HCV positive samples” value (peptide conjugated with BSA) is given as “marginally reactive or unreactive”, the “reactivity with HCV positive samples” value (peptide conjugated with HSA) is reported as “marginally reactive or unreactive” and the “reactivity with HCV positive samples” value (peptide conjugated with KLH) is listed as “reactive with most HCV positive samples”.

Take “GQIVGGVYLLPRRGP [MDL-3, HCV core region antigenic peptide]”: the “reactivity with positive HCV samples” value is listed as “more consistent reactivity” and the “reactivity with negative HCV samples” value is reported as “No significant reactivity”.

Turning to “MSTNPKPQRKTKRNTNRR [MDL-1, HCV core region antigenic peptide]”, the “reactivity with positive HCV samples” value is recorded as “more consistent reactivity” and the “reactivity with negative HCV samples” value is “No significant reactivity”.

As for “KTKRNTNRRPQDVKF [MDL-2, HCV core region antigenic peptide]”, the “reactivity with positive HCV samples” value is recorded as “more consistent reactivity” and the “reactivity with negative HCV samples” value is given as “No significant reactivity”.

Take PKARQPEGRAWAQPG [MDL-6]: the “reactivity with HCV positive samples” value (peptide conjugated with BSA) was “reactive with most HCV positive samples”, the “reactivity with HCV positive samples” value (peptide conjugated with HSA) is “reactive with most HCV positive samples” and the “reactivity with HCV positive samples” value (peptide conjugated with KLH) is listed as “poorly reactive”.

Turning to “ATRKTSERSQPRGRRQPI [MDL-5, HCV core region antigenic peptide]”, the “reactivity with HCV positive samples” value (peptide conjugated with BSA) is recorded as “reactive with most HCV positive samples”, the “reactivity with HCV positive samples” value (peptide conjugated with HSA) is “unreactive” and the “reactivity with HCV positive samples” value (peptide conjugated with KLH) is recorded as “reactive with most HCV positive samples”.
